Here are results for 9 molecules from paper PMC9105102, “Development and Biochemical Characterization of Self-Immolative Linker Containing GnRH-III-Drug Conjugates” (International Journal of Molecular Sciences, 2022).

Data set [1] has as its system A2780 human ovarian cancer cells. In words: cells. In kind it is cell-based. The protocol: (§1) For cultivation of A2780 human ovarian and Panc-1 human pancreatic cancer cells, RPMI-1640 medium with 10% FBS, L-glutamine and 1% Penicillin-Streptomycin were used. Cells were cultured in appropriate plastic flasks at 37 °C (humidified atmosphere, 5% CO2/95% air).
(§2) A set-up of 96-well plates was used to study the in vitro antiproliferative activity. Therefore, 5 × 10^3 cells in 100 µL complete medium were seeded to each well. After 24 h, complete medium was removed and cells were treated with 200 µL bioconjugate solution in serum-free medium (concentration range 0.0032–50 µM, control wells were treated with serum-free medium). Medium was taken out after 6 h treatment (PTX conjugates) or 24 h (Dau conjugates), replaced by complete medium and incubation was continued. To determine the cell viability, medium was removed after 72 h and 100 µL resazurin solution [45] (10% Tox-8 in FBS-free medium) was added to each well, followed by additional incubation of 2–3 h. A Tecan infinite 200 pro microplate reader (Tecan Group Ltd., Zürich, Switzerland) was used for fluorescence detection (λEx = 560 and λEm = 590 nm). Experiments were performed at least twice, using three parallels per concentration. The cell viability (and IC50 values) was calculated with GraphPad Prism using a nonlinear regression (sigmoidal dose-response).

Data set [2] deals with Panc-1 human pancreatic cancer cells. In words: cells. In kind it is cell-based. To be noted: for activity on Panc-1 cells lower than on A2780: ratio Panc-1 vs A2780. The protocol: as §1, §2
The target in data set [3] is T1, GnRH-R (membranes of human pituitary) (Homo sapiens, UniProt P30968).
T1 construct: GnRH-Rs expressed on human pituitary and human prostate cancer cells; from tissue; host or cells: normal human pituitary (anterior lobe), autopsy; membrane homogenate
T1 sequence (P30968 1-328): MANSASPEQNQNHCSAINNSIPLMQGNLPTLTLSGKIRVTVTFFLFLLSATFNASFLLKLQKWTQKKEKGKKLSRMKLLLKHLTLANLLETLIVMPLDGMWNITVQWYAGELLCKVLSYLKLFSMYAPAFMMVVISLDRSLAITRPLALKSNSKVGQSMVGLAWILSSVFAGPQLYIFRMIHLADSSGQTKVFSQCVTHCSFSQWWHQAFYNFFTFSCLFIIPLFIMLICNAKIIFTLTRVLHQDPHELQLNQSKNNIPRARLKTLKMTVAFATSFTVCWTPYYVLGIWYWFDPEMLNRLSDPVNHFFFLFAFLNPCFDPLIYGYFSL
In words: Radioligand competition assay, displacement of [125I]-GnRH-I-[6D-Trp] (triptorelin), human pituitary membranes. In kind it is binding. To be noted: for GnRH-R binding of the radiotracer affected: at concentrations up to 1 µM, unrelated peptides; for displacement of radio-labelled triptorelin from GnRH-Rs: human pituitary and human prostate cancer tissues, GnRH unrelated peptides. The protocol:
(§3) A ligand competition assay with [^125I]-GnRH-I-[^6D-Trp] as radioligand was performed to examine the binding affinity of the GnRH-III-drug conjugates to GnRH-Rs expressed on human pituitary and human prostate cancer cells. Human prostate cancer cells were derived from patients at the time of initial surgical treatment, while tissue samples from normal human pituitary (anterior lobe) were obtained by autopsy. All subjects were informed and gave their consent for inclusion before they participated in the study. The preparation of the cell membranes was carried out according to the literature. The chloramines-T method was used to prepare radioiodinated GnRH-I agonist triptorelin which was purified by RP-HPLC [10, 38, 39, 47]. The displacement of [^125I]-GnRH-I-[^6D-Trp] was studied in an in vitro ligand competition assay to determine the binding affinities of the non-radio-labeled GnRH-III bioconjugates to GnRH-RI [10, 11, 38, 39]. Membrane homogenates containing […] protein were incubated in duplicate or triplicate with 60–80,000 cpm [^125I]-GnRH-I-[^6D-Trp] and rising concentration (1 pM—1 µM) of nonradioactive bioconjugates as competitors in a total volume of […] binding buffer. Protein concentration was determined by the method of Bradford using a Bio-Rad protein assay kit (Bio-Rad Laboratories, Hercules, CA, USA). The LIGAND-PC computerized curve-fitting program of Munson and Rodbard was used to determine the receptor binding characteristics and IC50 values.
For orientation: Loss of bound radioactivity is the signal in a displacement assay; it reports binding, not function.

In data set [4] the target is T2, GnRH-R (membranes of human prostate cancer specimens) (Homo sapiens, UniProt P30968).
T2 construct: GnRH-Rs expressed on human pituitary and human prostate cancer cells; from tissue; host or cells: human prostate cancer specimens from patients (surgery); membrane homogenate
T2 sequence (P30968 1-328): T1 sequence (P30968 1-328)
In words: Radioligand competition assay, displacement of [125I]-GnRH-I-[6D-Trp] (triptorelin), human prostate cancer membranes. To be noted: mean ± SE of two to three determinations, read-out: IC50 Prostate Cancer, competitive inhibition of [125I][6D-Trp]-GnRH-I binding. The protocol:
as §3

Data set [5] is described as follows: Degradation of drug conjugates in presence of rat liver lysosomal homogenate (LC-MS). In kind it is in vitro ADME. To be noted: pH 5, 37 °C. The protocol: The preparation of the rat liver lysosomal homogenate was carried out as recently reported. A Qubit Protein Assay Kit (Thermo Fischer Scientific, Waltham, MA, USA) was used to examine the concentration of the lysosomal proteins.
Initially, a stock solution of the GnRH-III-Dau conjugates in water (5 µg/µL) was prepared. For the degradation reaction, the conjugates and the lysosomal homogenate were diluted together in 0.2 M NaOAc buffer (pH 5) to a concentration of 0.25 µg/µL each. These mixtures were kept at 37 °C and at distinct time points (5 min, 1 h, 2 h, 4 h, 8 h and 24 h), 15 µL of each sample were quenched with 2 µL acetic acid and analyzed by LC-MS (System I).
The GnRH-III-PTX conjugates were dissolved in DMSO to a concentration of 10 mM. The reaction was carried out in 0.2 M NaOAc buffer (pH 5) with 10 µM conjugate and 0.025 µg/mL lysosomal homogenate. The reaction mixtures were incubated at 37 °C and aliquots of 60 μL were taken at 5 min, 1 h, 2 h, 4 h, 8 h and 24 h and quenched with 5 μL of acetic acid. The analysis of the samples was performed by LC–MS (System-II).

[6] abbreviates: A2780 cells, treatment 24 h (Dau conjugates) or 6 h (PTX compounds), viability at 72 h, mean ± SE of two to three determinations, read-out: A2780 IC50.
[7] abbreviates: Panc-1 cells, treatment 24 h (Dau conjugates) or 6 h (PTX compounds), viability at 72 h, mean ± SE of two to three determinations, read-out: Panc-1 IC50.

Like-named read-outs stand apart in the source and are kept apart here.

What is called IC50 is the concentration needed to halve the response being measured. Take `COc1cccc2c1C(=O)c1c(O)c3c(c(O)c1C2=O)C[C@@](O)(C(C)=O)C[C@@H]3O[C@H]1C[C@H](N)[C@H](O)[C@H](C)O1` [Dau, daunorubicin, reference compound]: the IC50 was 0.21 ± 0.01 µM in data set [1] (Homo sapiens, A2780, read-out: A2780 IC50) and 2.43 ± 0.58 µM in data set [2] (Homo sapiens, PANC-1, read-out: Panc-1 IC50). Besides, the “activity on Panc-1 cells lower than on A2780” value in data set [2] is reported as “approximately 10 times”.

In the case of `CC(=O)O[C@H]1C(=O)[C@@]2(C)[C@H]([C@H](OC(=O)c3ccccc3)[C@]3(O)C[C@H](OC(=O)[C@H](O)[C@@H](NC(=O)c4ccccc4)c4ccccc4)C(C)=C1C3(C)C)[C@]1(OC(C)=O)CO[C@@H]1C[C@@H]2O` [PTX, paclitaxel, reference compound], the IC50 stood at 0.02 ± 0.001 µM in data set [1] (Homo sapiens, A2780 cells, treatment 24 h (Dau conjugates) or 6 h (PTX compounds), viability at 72 h, mean ± SE of two to three determinations, read-out: A2780 IC50) and 0.17 ± 0.01 µM in data set [2] (Homo sapiens, Panc-1 cells, treatment 24 h (Dau conjugates) or 6 h (PTX compounds), viability at 72 h, mean ± SE of two to three determinations, read-out: Panc-1 IC50).

In the case of `CCCC(=O)NCCCC[C@H](NC(=O)[C@H](Cc1c[nH]c2ccccc12)NC(=O)[C@H](Cc1c[nH]cn1)NC(=O)[C@@H]1CCC(=O)N1)C(=O)N[C@@H](Cc1c[nH]cn1)C(=O)N[C@@H](CC(=O)O)C(=O)N[C@@H](Cc1c[nH]c2ccccc12)C(=O)N[C@@H](CCCCN)C(=O)N1CCC[C@H]1C(=O)NCC(N)=O` [Peptide I, GnRH-III-[^4Lys(Bu)]], the IC50 is 0.00272 ± 0.00095 µM in data set [3] (human pituitary membranes, mean ± SE of two to three determinations, read-out: IC50 Pituitary, competitive inhibition of [125I][6D-Trp]-GnRH-I binding) and 0.00311 ± 0.00076 µM in data set [4].

`CCCC(=O)NCCCC[C@H](NC(=O)[C@H]1Cc2ccccc2CN1C(=O)[C@@H]1CCC(=O)N1)C(=O)N[C@@H](Cc1c[nH]cn1)C(=O)N[C@@H](CC(=O)O)C(=O)N[C@@H](Cc1c[nH]c2ccccc12)C(=O)N[C@@H](CCCCNC(=O)CCCC(=O)N[C@H](C(=O)N[C@@H](CCCNC(N)=O)C(=O)Nc1ccc(COC(=O)N[C@H]2C[C@H](O[C@H]3C[C@](O)(C(C)=O)Cc4c(O)c5c(c(O)c43)C(=O)c3c(OC)cccc3C5=O)O[C@@H](C)[C@H]2O)cc1)C(C)C)C(=O)N1CCC[C@H]1C(=O)NCC(N)=O` [compound 11, GnRH-III-[2ΔHis-3D-Tic,8Lys(glutaryl-Val-Cit-PABC-Dau)]]: the “activity on Panc-1 cells lower than on A2780” value in data set [2] is on record as “more than 20 times”. In data set [3] (Val-Cit vs Val-Ala), the “receptor binding affinity of 11 relative to corresponding Val-Ala conjugate 13” value is recorded as “twice as high”.

As for `CCCC(=O)NCCCC[C@H](NC(=O)[C@H]1Cc2ccccc2CN1C(=O)[C@@H]1CCC(=O)N1)C(=O)N[C@@H](Cc1c[nH]cn1)C(=O)N[C@@H](CC(=O)O)C(=O)N[C@@H](Cc1c[nH]c2ccccc12)C(=O)N[C@@H](CCCCNC(=O)CCCC(=O)N[C@H](C(=O)N[C@@H](C)C(=O)Nc1ccc(COC(=O)N[C@H]2C[C@H](O[C@H]3C[C@](O)(C(C)=O)Cc4c(O)c5c(c(O)c43)C(=O)c3c(OC)cccc3C5=O)O[C@@H](C)[C@H]2O)cc1)C(C)C)C(=O)N1CCC[C@H]1C(=O)NCC(N)=O` [compound 13], the “activity on Panc-1 cells lower than on A2780” value in data set [2] was “more than 20 times”.

`CCCC(=O)NCCCC[C@H](NC(=O)[C@H](Cc1c[nH]c2ccccc12)NC(=O)[C@H](Cc1c[nH]cn1)NC(=O)[C@@H]1CCC(=O)N1)C(=O)N[C@@H](Cc1c[nH]cn1)C(=O)N[C@@H](CC(=O)O)C(=O)N[C@@H](Cc1c[nH]c2ccccc12)C(=O)N[C@@H](CCCCNC(=O)CCCC(=O)N[C@H](C(=O)N[C@@H](CCCNC(N)=O)C(=O)Nc1ccc(COC(=O)N(C)CCN(C)C(=O)O[C@@H](C(=O)O[C@H]2C[C@@]3(O)[C@@H](OC(=O)c4ccccc4)[C@@H]4[C@]5(OC(C)=O)CO[C@@H]5C[C@H](O)[C@@]4(C)C(=O)[C@H](OC(C)=O)C(=C2C)C3(C)C)[C@@H](NC(=O)c2ccccc2)c2ccccc2)cc1)C(C)C)C(=O)N1CCC[C@H]1C(=O)NCC(N)=O` [compound 14]: the IC50 in data set [1] (setting [6]) was 0.67 ± 0.07 µM; in data set [2] (setting [7]) it was 5.03 ± 1.91 µM; in data set [3] it was 0.0105 ± 0.00201 µM; in data set [4] it was 0.0107 ± 0.00182 µM. Besides, in data set [5] (after 5 min of incubation), the “detection of the diamine-PTX fragment” value is reported as “could be already detected”. The “release of the free PTX” value in data set [5] (within 24 h) is reported as “could not be detected”.

With `CCCC(=O)NCCCC[C@H](NC(=O)[C@H](Cc1c[nH]c2ccccc12)NC(=O)[C@H](Cc1c[nH]cn1)NC(=O)[C@@H]1CCC(=O)N1)C(=O)N[C@@H](Cc1c[nH]cn1)C(=O)N[C@@H](CC(=O)O)C(=O)N[C@@H](Cc1c[nH]c2ccccc12)C(=O)N[C@@H](CCCCNC(=O)CCCC(=O)N(C)CCN(C)C(=O)O[C@@H](C(=O)O[C@H]1C[C@@]2(O)[C@@H](OC(=O)c3ccccc3)[C@@H]3[C@]4(OC(C)=O)CO[C@@H]4C[C@H](O)[C@@]3(C)C(=O)[C@H](OC(C)=O)C(=C1C)C2(C)C)[C@@H](NC(=O)c1ccccc1)c1ccccc1)C(=O)N1CCC[C@H]1C(=O)NCC(N)=O` [compound 25, GnRH-III-[2His-3Trp,8Lys(glutaryl-diamine-PTX)]], the IC50 in data set [1] (setting [6]) was 41.5 ± 9.83 µM; in data set [2] (setting [7]), over 100 µM. Moreover, the “detection of the diamine-PTX fragment” value in data set [5] (even after 24 h of incubation) was “could not be detected”.

Take bombesin [reference compound]: in data set [3], the “GnRH-R binding of the radiotracer affected” value is listed as “unable to affect” and the “displacement of radio-labelled triptorelin from GnRH-Rs” value was “not able to displace”.

somatostatin [reference compound]: in data set [3], the “GnRH-R binding of the radiotracer affected” value is on record as “unable to affect” and the “displacement of radio-labelled triptorelin from GnRH-Rs” value is given as “not able to displace”.
